{"source": "ChEMBL document CHEMBL1126360", "about": "“-Amino acid analogues as mechanism-based inactivators of -aminobutyric acid aminotransferase” (Bioorg Med Chem Lett, 1992)", "key": {"[1]": {"molecular_target": "4-aminobutyrate aminotransferase, mitochondrial (Sus scrofa, UniProt P80147)", "sequence (P80147 whole entry)": "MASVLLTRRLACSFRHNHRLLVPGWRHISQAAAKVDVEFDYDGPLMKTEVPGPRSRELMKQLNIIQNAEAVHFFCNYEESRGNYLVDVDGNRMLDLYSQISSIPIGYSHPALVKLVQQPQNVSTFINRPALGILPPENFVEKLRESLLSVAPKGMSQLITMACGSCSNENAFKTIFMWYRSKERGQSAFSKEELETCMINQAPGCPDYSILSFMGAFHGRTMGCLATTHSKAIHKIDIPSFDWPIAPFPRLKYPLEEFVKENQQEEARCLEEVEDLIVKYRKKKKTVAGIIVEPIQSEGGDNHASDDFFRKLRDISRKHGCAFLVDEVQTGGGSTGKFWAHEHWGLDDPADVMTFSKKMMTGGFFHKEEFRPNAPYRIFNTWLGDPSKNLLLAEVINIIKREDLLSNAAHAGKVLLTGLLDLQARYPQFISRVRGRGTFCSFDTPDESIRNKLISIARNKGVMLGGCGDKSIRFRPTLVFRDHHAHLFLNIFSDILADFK", "experiment": "Apparent dissociation constants for inactivation of Gamma-amino-N-butyrate transaminase"}, "[2]": {"molecular_target": "4-aminobutyrate aminotransferase, mitochondrial (Sus scrofa) (UniProt P80147)", "sequence (P80147 whole entry)": "as above", "experiment": "Rate constants for inactivation at infinite concentration for inactivation of Gamma-amino-N-butyrate transaminase"}}}
{"molecule": "C=C[C@](C)(N)C(=O)O", "values": [{"measurement": "Ki", "setting": "[1]", "value": 12.8, "unit": "mM"}, {"measurement": "K inact", "setting": "[2]", "value": "8.5e-05", "unit": "min⁻¹"}]}
{"molecule": "C[C@](N)(CF)C(=O)O", "values": [{"measurement": "Ki", "setting": "[1]", "value": 6.8, "unit": "mM"}, {"measurement": "K inact", "setting": "[2]", "value": 0.00059, "unit": "min⁻¹"}]}
{"molecule": "C[C@](N)(COP(=O)(O)O)C(=O)O", "values": [{"measurement": "Ki", "setting": "[1]", "value": 5.7, "unit": "mM"}, {"measurement": "K inact", "setting": "[2]", "value": 0.0014, "unit": "min⁻¹"}]}
{"molecule": "C[C@](N)(CCl)C(=O)O", "values": [{"measurement": "Ki", "setting": "[1]", "value": 6.5, "unit": "mM"}, {"measurement": "K inact", "setting": "[2]", "value": 0.00093, "unit": "min⁻¹"}]}
{"molecule": "N[C@@H](COS(=O)(=O)O)C(=O)O", "values": [{"measurement": "Ki", "setting": "[1]", "value": 2.4, "unit": "mM"}, {"measurement": "K inact", "setting": "[2]", "value": 0.0055, "unit": "min⁻¹"}]}
